Data published in the kinase profiling compilation of Christmann-Franck et al. (2016).

Experiments:
Test in all cases: KINOMEscan competition binding
Settings in all cases: compound 10.0 µM
CAMK2B (human) = CAMK2B (human) (UniProt Q13554)
MAP4K3 (human) = MAP4K3 (human) (UniProt Q8IVH8)
SRPK1 (human) = SRPK1 (human) (UniProt Q96SB4)
MST4 (human) = MST4 (human) (UniProt Q9P289)
ERBB2 (human) = ERBB2 (human) (UniProt P04626)
CaMK1 (human) = CaMK1 (human) (UniProt Q14012)
[1] = molecular target: JAK2 JH1 catalytic (human) (UniProt O60674)
ADCK3 (human) = ADCK3 (human) (UniProt Q8NI60)
PLK3 (human) = PLK3 (human) (UniProt Q9H4B4)
RIOK3 (human) = RIOK3 (human) (UniProt O14730)
CHEK2 (human) = CHEK2 (human) (UniProt O96017)
PLK1 (human) = PLK1 (human) (UniProt P53350)
CLK4 (human) = CLK4 (human) (UniProt Q9HAZ1)
PTK2 (human) = PTK2 (human) (UniProt Q05397)
PIM3 (human) = PIM3 (human) (UniProt Q86V86)
TLK1 (human) = TLK1 (human) (UniProt Q9UKI8)
CSNK1E (human) = CSNK1E (human) (UniProt P49674)
RPS6KA6 KD2 (human) = RPS6KA6 KD2 (human) (UniProt Q9UK32)
SGK110 (human) = SGK110 (human) (UniProt P0C264)
FYN (human) = FYN (human) (UniProt P06241)
ACVR2A (human) = ACVR2A (human) (UniProt P27037)
PDGFRB (human) = PDGFRB (human) (UniProt P09619)
PRKD3 (human) = PRKD3 (human) (UniProt O94806)
BMPR1A (human) = BMPR1A (human) (UniProt P36894)
MAP2K1 (human) = MAP2K1 (human) (UniProt Q02750)
CDC42BPA (human) = CDC42BPA (human) (UniProt Q5VT25)
CDK5 (human) = CDK5 (human) (UniProt Q00535)
PAK7 (human) = PAK7 (human) (UniProt Q9P286)
MARK1 (human) = MARK1 (human) (UniProt Q9P0L2)
[2] = tested on: KIT (human), P10721 [V559D]
RPS6KA5 KD2 (human) = RPS6KA5 KD2 (human) (UniProt O75582)
CHUK (human) = CHUK (human) (UniProt O15111)
MAP2K4 (human) = MAP2K4 (human) (UniProt P45985)
PRKCH (human) = PRKCH (human) (UniProt P24723)
EPHB2 (human) = EPHB2 (human) (UniProt P29323)
IKBKE (human) = IKBKE (human) (UniProt Q14164)
TESK1 (human) = TESK1 (human) (UniProt Q15569)
DMPK (human) = DMPK (human) (UniProt Q09013)
STK36 (human) = STK36 (human) (UniProt Q9NRP7)
TEK (human) = TEK (human) (UniProt Q02763)

PTK2 (human), sequence (Q05397 whole entry, looked up): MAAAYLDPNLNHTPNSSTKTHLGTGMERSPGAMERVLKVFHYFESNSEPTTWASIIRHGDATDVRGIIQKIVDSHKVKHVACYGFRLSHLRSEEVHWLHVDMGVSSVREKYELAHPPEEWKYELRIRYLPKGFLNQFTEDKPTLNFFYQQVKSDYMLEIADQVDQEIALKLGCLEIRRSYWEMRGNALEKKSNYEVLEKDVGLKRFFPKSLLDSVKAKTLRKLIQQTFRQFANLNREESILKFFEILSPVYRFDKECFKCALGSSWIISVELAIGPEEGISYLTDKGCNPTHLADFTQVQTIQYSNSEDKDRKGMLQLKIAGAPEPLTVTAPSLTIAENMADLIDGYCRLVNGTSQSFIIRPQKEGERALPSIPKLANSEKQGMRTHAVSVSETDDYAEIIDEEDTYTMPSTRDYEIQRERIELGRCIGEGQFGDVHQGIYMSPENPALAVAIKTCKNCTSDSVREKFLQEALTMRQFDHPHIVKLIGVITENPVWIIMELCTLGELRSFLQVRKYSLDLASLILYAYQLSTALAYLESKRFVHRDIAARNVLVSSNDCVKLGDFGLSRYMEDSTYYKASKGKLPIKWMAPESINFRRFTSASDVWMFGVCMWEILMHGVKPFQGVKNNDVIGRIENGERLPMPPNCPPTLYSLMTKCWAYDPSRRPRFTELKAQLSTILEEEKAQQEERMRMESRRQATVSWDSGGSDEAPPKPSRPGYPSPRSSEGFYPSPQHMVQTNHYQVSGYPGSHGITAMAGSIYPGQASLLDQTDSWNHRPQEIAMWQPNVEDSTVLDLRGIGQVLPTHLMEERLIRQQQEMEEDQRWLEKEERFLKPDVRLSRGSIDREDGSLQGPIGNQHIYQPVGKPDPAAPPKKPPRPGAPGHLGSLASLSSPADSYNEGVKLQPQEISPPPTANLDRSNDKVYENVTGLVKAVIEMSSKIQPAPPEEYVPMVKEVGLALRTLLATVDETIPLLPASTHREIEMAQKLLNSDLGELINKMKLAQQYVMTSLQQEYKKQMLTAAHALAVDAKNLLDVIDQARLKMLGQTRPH
PRKCH (human), sequence (P24723 whole entry, looked up): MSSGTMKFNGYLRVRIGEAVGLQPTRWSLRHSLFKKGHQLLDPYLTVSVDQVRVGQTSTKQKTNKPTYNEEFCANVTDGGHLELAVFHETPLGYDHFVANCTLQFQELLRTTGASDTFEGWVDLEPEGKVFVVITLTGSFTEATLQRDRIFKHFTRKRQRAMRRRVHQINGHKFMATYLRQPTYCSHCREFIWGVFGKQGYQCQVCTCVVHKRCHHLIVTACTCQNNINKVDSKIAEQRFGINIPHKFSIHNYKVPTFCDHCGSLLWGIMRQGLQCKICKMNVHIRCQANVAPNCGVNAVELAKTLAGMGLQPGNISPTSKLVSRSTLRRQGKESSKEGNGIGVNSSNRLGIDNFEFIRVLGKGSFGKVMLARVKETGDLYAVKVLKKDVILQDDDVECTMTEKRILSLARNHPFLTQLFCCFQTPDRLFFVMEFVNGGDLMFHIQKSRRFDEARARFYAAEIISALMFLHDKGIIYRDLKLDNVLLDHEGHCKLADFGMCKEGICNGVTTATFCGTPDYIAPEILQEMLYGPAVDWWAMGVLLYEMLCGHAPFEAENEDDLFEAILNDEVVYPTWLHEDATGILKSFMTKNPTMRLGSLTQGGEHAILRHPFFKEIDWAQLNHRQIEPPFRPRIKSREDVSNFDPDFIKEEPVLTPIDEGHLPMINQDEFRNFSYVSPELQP
ADCK3 (human), sequence (Q8NI60 whole entry, looked up): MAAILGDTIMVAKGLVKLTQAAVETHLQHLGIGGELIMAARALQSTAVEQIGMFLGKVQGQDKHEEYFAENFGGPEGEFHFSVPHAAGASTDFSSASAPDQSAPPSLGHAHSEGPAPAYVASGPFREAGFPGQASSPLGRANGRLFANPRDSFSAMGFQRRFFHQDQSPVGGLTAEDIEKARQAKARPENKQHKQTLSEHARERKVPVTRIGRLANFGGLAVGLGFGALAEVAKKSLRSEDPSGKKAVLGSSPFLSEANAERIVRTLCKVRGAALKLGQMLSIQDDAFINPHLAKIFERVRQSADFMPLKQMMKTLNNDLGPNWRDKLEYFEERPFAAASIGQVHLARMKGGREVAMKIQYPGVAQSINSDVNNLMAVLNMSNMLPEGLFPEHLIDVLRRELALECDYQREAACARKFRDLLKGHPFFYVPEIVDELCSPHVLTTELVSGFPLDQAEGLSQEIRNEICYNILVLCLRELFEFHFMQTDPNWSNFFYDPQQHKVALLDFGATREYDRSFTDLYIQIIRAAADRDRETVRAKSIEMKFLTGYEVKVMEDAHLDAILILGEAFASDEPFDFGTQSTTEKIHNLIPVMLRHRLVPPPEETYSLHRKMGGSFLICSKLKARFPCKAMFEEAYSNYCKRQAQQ
IKBKE (human), sequence (Q14164 whole entry, looked up): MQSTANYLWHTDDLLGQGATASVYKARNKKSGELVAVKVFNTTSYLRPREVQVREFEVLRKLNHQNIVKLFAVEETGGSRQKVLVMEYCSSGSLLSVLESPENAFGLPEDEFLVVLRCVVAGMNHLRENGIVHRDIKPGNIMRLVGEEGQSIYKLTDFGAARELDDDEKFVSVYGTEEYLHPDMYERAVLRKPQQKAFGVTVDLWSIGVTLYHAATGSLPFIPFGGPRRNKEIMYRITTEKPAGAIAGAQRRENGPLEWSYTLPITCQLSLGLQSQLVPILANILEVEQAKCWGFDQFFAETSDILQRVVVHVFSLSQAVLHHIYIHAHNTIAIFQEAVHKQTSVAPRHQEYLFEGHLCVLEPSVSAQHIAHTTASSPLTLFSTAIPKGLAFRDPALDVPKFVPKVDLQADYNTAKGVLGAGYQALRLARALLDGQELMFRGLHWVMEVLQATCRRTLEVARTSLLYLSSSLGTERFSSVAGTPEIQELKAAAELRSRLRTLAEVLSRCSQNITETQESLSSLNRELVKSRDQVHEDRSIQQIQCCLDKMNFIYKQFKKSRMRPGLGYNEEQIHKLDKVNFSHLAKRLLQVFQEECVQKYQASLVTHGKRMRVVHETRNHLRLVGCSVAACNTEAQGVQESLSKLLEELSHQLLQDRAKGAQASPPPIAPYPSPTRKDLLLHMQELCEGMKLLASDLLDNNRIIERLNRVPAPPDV
STK36 (human), sequence (Q9NRP7 whole entry, looked up): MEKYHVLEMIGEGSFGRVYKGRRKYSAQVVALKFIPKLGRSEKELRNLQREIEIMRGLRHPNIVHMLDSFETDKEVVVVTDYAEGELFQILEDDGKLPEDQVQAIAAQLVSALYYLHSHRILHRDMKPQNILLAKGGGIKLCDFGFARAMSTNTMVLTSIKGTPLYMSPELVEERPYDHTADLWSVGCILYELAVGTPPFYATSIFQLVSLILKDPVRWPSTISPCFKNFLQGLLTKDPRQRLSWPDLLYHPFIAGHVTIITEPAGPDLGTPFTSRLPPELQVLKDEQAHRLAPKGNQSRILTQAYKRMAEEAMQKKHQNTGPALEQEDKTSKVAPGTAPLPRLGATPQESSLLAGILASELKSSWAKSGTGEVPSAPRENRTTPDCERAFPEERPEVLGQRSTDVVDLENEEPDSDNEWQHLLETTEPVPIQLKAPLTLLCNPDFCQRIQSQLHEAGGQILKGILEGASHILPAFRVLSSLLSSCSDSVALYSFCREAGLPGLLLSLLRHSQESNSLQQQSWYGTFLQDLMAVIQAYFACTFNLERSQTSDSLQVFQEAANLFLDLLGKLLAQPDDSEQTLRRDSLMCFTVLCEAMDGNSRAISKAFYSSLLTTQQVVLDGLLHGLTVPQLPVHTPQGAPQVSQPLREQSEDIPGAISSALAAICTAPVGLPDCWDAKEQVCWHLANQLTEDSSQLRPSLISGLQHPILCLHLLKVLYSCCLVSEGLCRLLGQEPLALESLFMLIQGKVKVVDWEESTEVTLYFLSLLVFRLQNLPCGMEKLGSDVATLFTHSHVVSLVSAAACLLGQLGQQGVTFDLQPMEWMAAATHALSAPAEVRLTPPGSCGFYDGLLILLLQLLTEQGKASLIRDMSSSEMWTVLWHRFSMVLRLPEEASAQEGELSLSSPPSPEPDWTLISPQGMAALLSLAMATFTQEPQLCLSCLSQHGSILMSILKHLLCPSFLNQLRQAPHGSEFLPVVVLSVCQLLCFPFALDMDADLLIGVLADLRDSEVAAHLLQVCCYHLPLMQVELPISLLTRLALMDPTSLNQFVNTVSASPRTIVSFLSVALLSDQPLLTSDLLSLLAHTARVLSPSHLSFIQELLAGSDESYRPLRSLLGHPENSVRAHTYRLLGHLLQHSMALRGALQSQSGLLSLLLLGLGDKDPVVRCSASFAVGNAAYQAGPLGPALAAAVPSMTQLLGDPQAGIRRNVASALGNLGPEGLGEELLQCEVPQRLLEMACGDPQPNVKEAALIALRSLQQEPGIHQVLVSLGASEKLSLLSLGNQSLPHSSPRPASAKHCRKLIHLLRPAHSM
CSNK1E (human), sequence (P49674 whole entry, looked up): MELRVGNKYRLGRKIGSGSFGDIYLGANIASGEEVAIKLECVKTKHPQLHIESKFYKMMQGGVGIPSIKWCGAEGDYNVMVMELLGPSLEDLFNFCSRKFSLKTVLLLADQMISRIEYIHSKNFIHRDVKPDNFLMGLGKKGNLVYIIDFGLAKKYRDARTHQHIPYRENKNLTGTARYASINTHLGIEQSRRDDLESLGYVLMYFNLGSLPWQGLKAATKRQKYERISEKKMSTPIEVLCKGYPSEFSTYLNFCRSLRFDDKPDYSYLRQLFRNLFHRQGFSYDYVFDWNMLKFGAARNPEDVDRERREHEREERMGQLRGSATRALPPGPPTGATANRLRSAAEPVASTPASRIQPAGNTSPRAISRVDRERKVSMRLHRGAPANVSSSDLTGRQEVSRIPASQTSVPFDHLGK

| Compound | kinase still bound, per cent of control (CAMK2B (human)) | kinase still bound, per cent of control (MAP4K3 (human)) | kinase still bound, per cent of control (SRPK1 (human)) | kinase still bound, per cent of control (MST4 (human)) | kinase still bound, per cent of control (ERBB2 (human)) | kinase still bound, per cent of control (CaMK1 (human)) | kinase still bound, per cent of control [1] | kinase still bound, per cent of control (ADCK3 (human)) | kinase still bound, per cent of control (PLK3 (human)) | kinase still bound, per cent of control (RIOK3 (human)) | kinase still bound, per cent of control (CHEK2 (human)) | kinase still bound, per cent of control (PLK1 (human)) | kinase still bound, per cent of control (CLK4 (human)) | kinase still bound, per cent of control (PTK2 (human)) | kinase still bound, per cent of control (PIM3 (human)) | kinase still bound, per cent of control (TLK1 (human)) | kinase still bound, per cent of control (CSNK1E (human)) | kinase still bound, per cent of control (RPS6KA6 KD2 (human)) | kinase still bound, per cent of control (SGK110 (human)) | kinase still bound, per cent of control (FYN (human)) | further results |
| --- | --- | --- | --- | --- | --- | --- | --- | --- | --- | --- | --- | --- | --- | --- | --- | --- | --- | --- | --- | --- | --- |
| Cc1cc([C@@H](C)Nc2ccccc2C(=O)O)c2nc(N3CCOCC3)cc(=O)n2c1 | 83% | 88% | 100% | 100% | 100% | 100% | 62% | 86% | 89% | 100% | 100% | 100% | 68% | 88% | 100% | 96% | 98% | 100% | 100% | 100% | kinase still bound, per cent of control (ACVR2A (human)): 94%; kinase still bound, per cent of control (PDGFRB (human)): 100%; kinase still bound, per cent of control (PRKD3 (human)): 100%; kinase still bound, per cent of control (BMPR1A (human)): 97%; kinase still bound, per cent of control (MAP2K1 (human)): 89%; kinase still bound, per cent of control (CDC42BPA (human)): 96%; kinase still bound, per cent of control (CDK5 (human)): 100%; kinase still bound, per cent of control (PAK7 (human)): 99%; kinase still bound, per cent of control (MARK1 (human)): 100%; kinase still bound, per cent of control [2]: 91%; kinase still bound, per cent of control (RPS6KA5 KD2 (human)): 91%; kinase still bound, per cent of control (CHUK (human)): 100%; kinase still bound, per cent of control (MAP2K4 (human)): 100%; kinase still bound, per cent of control (PRKCH (human)): 82%; kinase still bound, per cent of control (EPHB2 (human)): 100%; kinase still bound, per cent of control (IKBKE (human)): 85%; kinase still bound, per cent of control (TESK1 (human)): 100%; kinase still bound, per cent of control (DMPK (human)): 100%; kinase still bound, per cent of control (STK36 (human)): 100%; kinase still bound, per cent of control (TEK (human)): 100% |
| CCN1CCN(Cc2ccc(Nc3ncc4c(n3)N(C)c3ccccc3C(=O)N4C)cc2C(F)(F)F)CC1 | 58% | 11% | 82% | 5.6% | 100% | 78% | 0% | 78% | 100% | 38% | 100% | 27% | 100% | 57% | 84% | 74% | 45% | 16% | 0.6% | 20% | kinase still bound, per cent of control (ACVR2A (human)): 56%; kinase still bound, per cent of control (PDGFRB (human)): 56%; kinase still bound, per cent of control (PRKD3 (human)): 8%; kinase still bound, per cent of control (BMPR1A (human)): 8.2%; kinase still bound, per cent of control (MAP2K1 (human)): 86%; kinase still bound, per cent of control (CDC42BPA (human)): 70%; kinase still bound, per cent of control (CDK5 (human)): 84%; kinase still bound, per cent of control (PAK7 (human)): 81%; kinase still bound, per cent of control (MARK1 (human)): 21%; kinase still bound, per cent of control [2]: 56%; kinase still bound, per cent of control (RPS6KA5 KD2 (human)): 100%; kinase still bound, per cent of control (CHUK (human)): 100%; kinase still bound, per cent of control (MAP2K4 (human)): 100%; kinase still bound, per cent of control (PRKCH (human)): 100%; kinase still bound, per cent of control (EPHB2 (human)): 100%; kinase still bound, per cent of control (IKBKE (human)): 73%; kinase still bound, per cent of control (TESK1 (human)): 73%; kinase still bound, per cent of control (DMPK (human)): 91%; kinase still bound, per cent of control (STK36 (human)): 82%; kinase still bound, per cent of control (TEK (human)): 85% |
| C=CC(=O)Nc1cc(NC(=O)c2ccc(C)c(NC(=O)c3ccno3)c2)cc(C(F)(F)F)c1 | 100% | 87% | 86% | 91% | 100% | 88% | 74% | 100% | 100% | 76% | 96% | 77% | 100% | 91% | 100% | 100% | 100% | 79% | 100% | 73% | kinase still bound, per cent of control (ACVR2A (human)): 100%; kinase still bound, per cent of control (PDGFRB (human)): 1.2%; kinase still bound, per cent of control (PRKD3 (human)): 100%; kinase still bound, per cent of control (BMPR1A (human)): 100%; kinase still bound, per cent of control (MAP2K1 (human)): 87%; kinase still bound, per cent of control (CDC42BPA (human)): 100%; kinase still bound, per cent of control (CDK5 (human)): 90%; kinase still bound, per cent of control (PAK7 (human)): 94%; kinase still bound, per cent of control (MARK1 (human)): 100%; kinase still bound, per cent of control [2]: 1.4%; kinase still bound, per cent of control (RPS6KA5 KD2 (human)): 90%; kinase still bound, per cent of control (CHUK (human)): 100%; kinase still bound, per cent of control (MAP2K4 (human)): 100%; kinase still bound, per cent of control (PRKCH (human)): 100%; kinase still bound, per cent of control (EPHB2 (human)): 77%; kinase still bound, per cent of control (IKBKE (human)): 100%; kinase still bound, per cent of control (TESK1 (human)): 100%; kinase still bound, per cent of control (DMPK (human)): 100%; kinase still bound, per cent of control (STK36 (human)): 100%; kinase still bound, per cent of control (TEK (human)): 100% |
